Data taken from patent US6331520A, “Pharmaceutical compositions of peptides having low solubility in physiological medium” (Applied Research Systems ARS Holding NV, priority 1997, dated 2001).
≈ marks a conversion by molar mass, not a printed value. Non-standard residues stand in square brackets, D forms with d. Residues, ends and D or L forms follow the SMILES beside them. *: point of attachment. dPhe(4-Cl) = N[C@H](Cc1ccc(Cl)cc1)C(=O)O; d2Nal = N[C@H](Cc1ccc2ccccc2c1)C(=O)O; Lys(iPr) = CC(C)NCCCC[C@H](N)C(=O)O; d3Pal = N[C@H](Cc1cccnc1)C(=O)O; Nicotinoyl = O=C(c1cccnc1)*

Key:
Type in all cases: physicochemical
[1] = Solubilisation studies for antide: effect of pH (WFI, saline, acids)
Procedure: Solubilisation studies were carried out to study the effect of:
pH (solutions were acidified with either acetic acid or hydrochloric acid)
(§1) Saline used in these studies corresponds to 0.9% sodium chloride solution.
(§2) Following the visual analysis, a number of solutions were selected for further quantitative determination of the solubility by filtration (0.45 μm filters) and appropriate dilution using the RP-HPLC method described above.
Tables 3 to 7 summarise the observations collected in order to obtain information on the solubility behaviour of antide in water for injectables (WFI), WFI acidified by HCl or acetic acid, saline and saline acidified by acetic acid. In agreement with previous studies, the solubility of antide increased as the pH decreased.

[2] = Solubilisation studies for antide: effect of hydrotropic agents in saline; settings: for Solubility: antide 5 mg/ml added
Text: hydrotropic agents (nicotinamide, sodium saccharin, sodium salicylate, sodium benzoate, histidine hydrochloride, thiamine hydrochloride, phenylalanine).
as §1, §2
The effect of different hydrotropic agents (1.5% & 15% w/w) in saline solutions was also evaluated and is described in Tables 8 and 9.

[3] = Stability of nicotinamide/antide formulations; design: Stability (antide found): unit not given here
Procedure: RP-HPLC gradient elution, C-18 (e.g. Vydac 218 TP54, 250×4.6 mm) column. UV detection at 215 nm, injection volume 15 μl, mobile phase A: pH 4.5 phosphate buffer (0.1 M), mobile phase B: acetonitrile, flow rate=1.0 ml/min, runtime=23 min. External standard solution concentrations of 100 μg/ml were injected during analysis. The gradient was: 77% A, 23% B to 52% A, 48% B […].
Four formulations of antide and nicotinamide at different concentration ratios and adjusted to pH 5 were prepared and tested over 3 months at +40° C., +25° C. and +4° C.

[4] = Solubilisation studies for hGRF; settings: for solubility thermodynamic at 1 week: 0.9% NaCl
Procedure: Solubilisation studies were carried out to study the effect of saline and pH 7 phosphate buffer on the solubility of hGRF.
Qunatitation of the amount of hGRF dissolved was performed by filtration of the equilibrated solution through a 0.45 μm filter prior to dilution and analysis by HPLC.

With `CC(=O)N[C@H](Cc1ccc2ccccc2c1)C(=O)N[C@H](Cc1ccc(Cl)cc1)C(=O)N[C@H](Cc1cccnc1)C(=O)N[C@@H](CO)C(=O)N[C@@H](CCCCNC(=O)c1cccnc1)C(=O)N[C@H](CCCCNC(=O)c1cccnc1)C(=O)N[C@@H](CC(C)C)C(=O)N[C@@H](CCCCNC(C)C)C(=O)N1CCC[C@H]1C(=O)N[C@H](C)C(N)=O` [antide] (Ac-[d2Nal][dPhe(4-Cl)][d3Pal]SK(Nicotinoyl)[dK](Nicotinoyl)L[Lys(iPr)]P[dA]-NH2) the “Solubility” value ([1]; 10 mg/ml in saline, pH 3.0 or 4.6, 4% acetic acid) was “not soluble”, the Solubility ([1]; WFI, 10 mg/ml nominal amount added, pH 4.40) was 8130 µg/mL (≈ 5110 µM) and the Solubility ([1]; phosphate buffered saline, aqueous buffer, read-out: solubility) was 16 µg/mL (≈ 10.1 µM). For the same compound, the Solubility ([1]; saline solution, natural pH 5.04) was 25 µg/mL (≈ 15.7 µM), the solubility thermodynamic ([1]; water, without further acidification, read-out: solubility limit) was 8100 µg/mL (≈ 5090 µM) and the “solubilisation” value ([2]; 1.5% w/w hydrotropic agents in saline, antide 10 mg/ml) was “not effective”. For the same compound, the antide solubilised ([2]; 5% nicotinamide in saline) was “about 0.5 mg/ml”, the antide solubilised ([2]; 20% nicotinamide in saline) was 8.5 mg/mL and the Solubility ([2]; saline + 15% nicotinamide, pH 5.79) was 3320 µg/mL. The Solubility ([2]; saline + 15% sodium benzoate, pH 6.69) was 72 µg/mL, the Solubility ([2]; saline + 15% sodium salicylate, pH 5.81) was 210 µg/mL and the Solubility ([2]; saline + 15% thiamine hydrochloride, pH 3.30) was 3010 µg/mL. For the same compound, the Solubility ([2]; saline + histidine hydrochloride (5%), pH 4.17) was 76 µg/mL, the Solubility ([2]; saline + phenylalanine (1.7%), pH 4.59) was 66 µg/mL and the “Stability (antide found)” value ([3]; antide 1 mg/ml, nicotinamide 5%, +4° C., 4W) was 0.9. For the same compound, the “Stability (antide found)” value ([3]; antide 1 mg/ml, nicotinamide 5%, +4° C., 12W) was 1.0, the “Stability (antide found)” value ([3]; antide 1 mg/ml, nicotinamide 5%, +25° C., 1W) was 0.9 and the “Stability (antide found)” value ([3]; antide 1 mg/ml, nicotinamide 5%, +25° C., 4W) was 0.9. For the same compound, the “Stability (antide found)” value ([3]; antide 1 mg/ml, nicotinamide 5%, +25° C., 12W) was 1.0, the “Stability (antide found)” value ([3]; antide 1 mg/ml, nicotinamide 5%, +40° C., 1W) was 1.0 and the “Stability (antide found)” value ([3]; antide 1 mg/ml, nicotinamide 5%, +40° C., 4W) was 0.9. The “Stability (antide found)” value ([3]; antide 1 mg/ml, nicotinamide 5%, +40° C., 12W) was 1.0, the “Stability (antide found)” value ([3]; antide 1 mg/ml, nicotinamide 5%, T = 0) was 1.0 and the “Stability (antide found)” value ([3]; antide 1 mg/ml, nicotinamide 25%, +4° C., 4W) was 1.0. For the same compound, the “Stability (antide found)” value ([3]; antide 1 mg/ml, nicotinamide 25%, +4° C., 12W) was 1.1, the “Stability (antide found)” value ([3]; antide 1 mg/ml, nicotinamide 25%, +25° C., 1W) was 1.0 and the “Stability (antide found)” value ([3]; antide 1 mg/ml, nicotinamide 25%, +25° C., 4W) was 1.0. The “Stability (antide found)” value ([3]; antide 1 mg/ml, nicotinamide 25%, +25° C., 12W) was 1.1, the “Stability (antide found)” value ([3]; antide 1 mg/ml, nicotinamide 25%, +40° C., 1W) was 1.0 and the “Stability (antide found)” value ([3]; antide 1 mg/ml, nicotinamide 25%, +40° C., 4W) was 1.0. The “Stability (antide found)” value ([3]; antide 1 mg/ml, nicotinamide 25%, +40° C., 12W) was 1.1, the “Stability (antide found)” value ([3]; antide 1 mg/ml, nicotinamide 25%, T = 0) was 1.0 and the “Stability (antide found)” value ([3]; antide 10 mg/ml, nicotinamide 5%, +4° C., 1W) was 10.3. For the same compound, the “Stability (antide found)” value ([3]; antide 10 mg/ml, nicotinamide 5%, +4° C., 4W) was 10.0, the “Stability (antide found)” value ([3]; antide 10 mg/ml, nicotinamide 5%, +4° C., 12W) was 10.5 and the “Stability (antide found)” value ([3]; antide 10 mg/ml, nicotinamide 5%, +25° C., 1W) was “gel”. For the same compound, the “Stability (antide found)” value ([3]; antide 10 mg/ml, nicotinamide 5%, +25° C., 4W) was “gel”, the “Stability (antide found)” value ([3]; antide 10 mg/ml, nicotinamide 5%, +25° C., 12W) was “gel” and the “Stability (antide found)” value ([3]; antide 10 mg/ml, nicotinamide 5%, +40° C., 1W) was “gel”. For the same compound, the “Stability (antide found)” value ([3]; antide 10 mg/ml, nicotinamide 5%, +40° C., 4W) was “gel”, the “Stability (antide found)” value ([3]; antide 10 mg/ml, nicotinamide 5%, +40° C., 12W) was “gel” and the “Stability (antide found)” value ([3]; antide 10 mg/ml, nicotinamide 5%, T = 0) was 9.7. For the same compound, the “Stability (antide found)” value ([3]; antide 10 mg/ml, nicotinamide 25%, +4° C., 4W) was 10.1, the “Stability (antide found)” value ([3]; antide 10 mg/ml, nicotinamide 25%, +25° C., 1W) was 9.8 and the “Stability (antide found)” value ([3]; antide 10 mg/ml, nicotinamide 25%, +25° C., 4W) was 9.5. For the same compound, the “Stability (antide found)” value ([3]; antide 10 mg/ml, nicotinamide 25%, +25° C., 12W) was 11.1, the “Stability (antide found)” value ([3]; antide 10 mg/ml, nicotinamide 25%, +40° C., 1W) was 10.7 and the “Stability (antide found)” value ([3]; antide 10 mg/ml, nicotinamide 25%, +40° C., 4W) was 9.4. The “Stability (antide found)” value ([3]; antide 10 mg/ml, nicotinamide 25%, +40° C., 12W) was 10.2, the “Stability (antide found)” value ([3]; antide 10 mg/ml, nicotinamide 25%, T = 0) was 9.8 and the chemical degradation ([3]; antide/nicotinamide formulations, after 3 months) was “No chemical degradation”.
Work on `CC[C@H](C)[C@H](NC(=O)[C@H](C)NC(=O)[C@H](CC(=O)O)NC(=O)[C@H](C)NC(=O)[C@@H](N)Cc1ccc(O)cc1)C(=O)N[C@@H](Cc1ccccc1)C(=O)N[C@H](C(=O)N[C@@H](CC(N)=O)C(=O)N[C@@H](CO)C(=O)N[C@@H](Cc1ccc(O)cc1)C(=O)N[C@@H](CCCNC(=N)N)C(=O)N[C@@H](CCCCN)C(=O)N[C@H](C(=O)N[C@@H](CC(C)C)C(=O)NCC(=O)N[C@@H](CCC(N)=O)C(=O)N[C@@H](CC(C)C)C(=O)N[C@@H](CO)C(=O)N[C@@H](C)C(=O)N[C@@H](CCCNC(=N)N)C(=O)N[C@@H](CCCCN)C(=O)N[C@@H](CC(C)C)C(=O)N[C@@H](CC(C)C)C(=O)N[C@@H](CCC(N)=O)C(=O)N[C@@H](CC(=O)O)C(=O)N[C@H](C(=O)N[C@@H](CCSC)C(=O)N[C@@H](CO)C(=O)N[C@@H](CCCNC(=N)N)C(N)=O)[C@@H](C)CC)C(C)C)[C@@H](C)O` [hGRF, hGRF(1-29)-NH2] yielded a solubility thermodynamic at 1 week ([4]; 25° C., one week) of 42 µg/mL (≈ 12.5 µM), a solubility thermodynamic at 1 week ([4]; 40° C. for one week) of 97 µg/mL (≈ 28.9 µM) and a solubility at 1 week ([4]; 25° C., WFI, one week) of over 1000 µg/mL. It also gave a Solubility ([4]; 40° C. for one week, 0.9% NaCl + 5% nicotinamide) of 875 µg/mL and a solubility thermodynamic at 5 days ([4]; PBS, pH 7, aqueous buffer, 25° C., 5 days) of 32 µg/mL (≈ 9.53 µM).
